From patent publication US10081624B2, “Heterocyclic compound” (Takeda Pharmaceutical Company Limited, priority 2014, dated 2018) come the findings set out here.

One assay deals with T1, HDAC6 enzyme (Homo sapiens, UniProt Q9UBN7).
T1 construct: prepared by transducing full length HDAC1 and HDAC6 genes into Sf-9 insect cells; GST; purchased SignalChem; host or cells: Sf-9 insect cells
T1 sequence (Q9UBN7 1-1215): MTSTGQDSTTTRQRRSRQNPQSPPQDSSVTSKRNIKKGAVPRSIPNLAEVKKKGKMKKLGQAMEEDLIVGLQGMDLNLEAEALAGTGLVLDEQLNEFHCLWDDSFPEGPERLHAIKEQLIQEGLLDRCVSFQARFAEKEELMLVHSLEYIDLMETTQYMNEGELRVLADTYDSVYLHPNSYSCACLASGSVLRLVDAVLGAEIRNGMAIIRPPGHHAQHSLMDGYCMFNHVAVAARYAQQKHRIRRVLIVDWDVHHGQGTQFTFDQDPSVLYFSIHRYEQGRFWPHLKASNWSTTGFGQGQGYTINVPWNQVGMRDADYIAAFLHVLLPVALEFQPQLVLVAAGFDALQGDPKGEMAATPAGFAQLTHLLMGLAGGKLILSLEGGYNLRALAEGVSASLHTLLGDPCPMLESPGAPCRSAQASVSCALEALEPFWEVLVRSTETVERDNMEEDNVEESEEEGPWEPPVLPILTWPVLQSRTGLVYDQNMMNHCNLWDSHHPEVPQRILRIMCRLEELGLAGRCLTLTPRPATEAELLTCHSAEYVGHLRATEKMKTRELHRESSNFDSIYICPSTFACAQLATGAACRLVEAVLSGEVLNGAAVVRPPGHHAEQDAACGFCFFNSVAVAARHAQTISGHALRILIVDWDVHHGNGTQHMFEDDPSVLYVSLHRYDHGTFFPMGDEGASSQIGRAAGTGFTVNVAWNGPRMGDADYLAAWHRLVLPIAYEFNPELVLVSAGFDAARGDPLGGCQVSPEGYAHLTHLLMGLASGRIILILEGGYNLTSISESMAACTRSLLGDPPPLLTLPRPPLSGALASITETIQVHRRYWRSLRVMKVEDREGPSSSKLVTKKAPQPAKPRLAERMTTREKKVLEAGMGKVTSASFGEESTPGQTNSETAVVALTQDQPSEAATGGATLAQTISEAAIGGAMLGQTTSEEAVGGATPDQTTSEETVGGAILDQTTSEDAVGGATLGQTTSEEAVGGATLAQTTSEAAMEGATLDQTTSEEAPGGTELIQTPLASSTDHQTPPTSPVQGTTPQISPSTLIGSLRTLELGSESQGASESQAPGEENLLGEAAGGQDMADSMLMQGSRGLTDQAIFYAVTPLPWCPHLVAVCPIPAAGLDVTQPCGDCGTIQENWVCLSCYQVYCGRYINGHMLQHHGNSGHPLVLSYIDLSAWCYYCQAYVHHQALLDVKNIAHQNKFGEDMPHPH
In words: HDAC6 enzyme inhibitory assay (HDAC-Glo I/II Assay kit). It counts as biochemical. The note with it: 1 μM test compound; for inhibition at 1 µM: read-out: HDAC6 inhibitory rate (%) (1 μM). In short, it runs like this:
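Luminescent HDAC-Glo I/II read-out after 20 min room-temperature reaction with substrate-developer, following a 60 min room-temperature enzyme–compound preincubation. Enzymes: full-length HDAC1 or HDAC6 from Sf-9 cells, GST-purified; buffer pH 7.5 Tris with NaCl, glutathione, 0.01% Tween-20. No-enzyme wells defined 100% inhibition.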

The target of the next assay is T2, HDAC1 enzyme (Homo sapiens, UniProt Q13547).
T2 construct: prepared by transducing full length HDAC1 and HDAC6 genes into Sf-9 insect cells; GST; purchased SignalChem; host or cells: Sf-9 insect cells
Description: HDAC1 enzyme inhibitory assay (HDAC-Glo I/II Assay kit). As to conditions: 1 μM test compound; for inhibition at 1 µM: read-out: HDAC1 inhibitory rate (%) (1 μM). Type of assay: biochemical. How it is done: HDAC1 enzyme and HDAC6 enzyme each prepared by transducing full length HDAC1 and HDAC6 genes into Sf-9 insect cells and purifying by GST affinity column were purchased from SignalChem. Using these enzymes, HDAC1 and/or HDAC6 enzyme inhibitory activities of the compound of the present invention were evaluated. Enzymes were used after preserved at −70° C. HDAC1 or HDAC6 enzyme inhibitory activity of the compound of the present invention was measured using HDAC-Glo™ I/II Assay kit (Promega) according to the following experimental method. The test compound diluted with assay buffer (24 mM Tris-HCl (pH 7.5), 1 mM MgCl2, 0.35 mM KCl, 135 mM NaCl, 0.6 mM Glutathione, 0.01% Tween-20) was added to a 384-well plate by each 2 μL. Then, HDAC1 or HDAC6 enzyme solution diluted with assay buffer was added thereto by each 4 μL, and the plate was incubated at room temperature for 60 min. After incubated, HDAC substrate-Developer solution prepared according to Promega protocol attached to the assay kit was added to the 384-well plate by each 2 μL, and the enzyme reaction was started. After reacting at room temperature for 20 min, luminescence level was measured using plate reader Envision (PerkinElmer). The inhibitory activity of each compound was calculated as a relative activity value when luminescence level in wells without enzyme is considered as 100% inhibition.

T2 sequence (Q13547 whole entry): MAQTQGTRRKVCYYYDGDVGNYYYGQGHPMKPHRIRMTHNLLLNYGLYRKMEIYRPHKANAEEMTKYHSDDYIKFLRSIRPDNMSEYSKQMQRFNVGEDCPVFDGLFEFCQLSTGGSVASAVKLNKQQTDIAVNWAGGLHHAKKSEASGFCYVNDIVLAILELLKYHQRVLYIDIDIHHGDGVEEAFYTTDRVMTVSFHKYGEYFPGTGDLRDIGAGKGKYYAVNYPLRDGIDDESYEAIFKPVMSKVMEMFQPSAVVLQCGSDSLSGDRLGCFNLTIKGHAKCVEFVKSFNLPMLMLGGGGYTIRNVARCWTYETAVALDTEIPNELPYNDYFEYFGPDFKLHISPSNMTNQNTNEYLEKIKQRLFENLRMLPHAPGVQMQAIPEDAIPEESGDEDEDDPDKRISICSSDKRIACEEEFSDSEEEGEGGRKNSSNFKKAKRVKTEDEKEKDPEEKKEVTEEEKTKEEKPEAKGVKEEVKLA

`O=C(NCC1COCCN1C(=O)c1ccccc1)c1ccc(-c2noc(C(F)(F)F)n2)s1` (single isomer, unassigned) [Example 257, (R or S)-N-((4-benzoylmorpholin-3-yl)methyl)-5-(5-(trifluoromethyl)-1,2,4-oxadiazol-3-yl)thiophene-2-carboxamide]: the inhibition at 1 µM at HDAC6 enzyme worked out at 97%; on HDAC1 enzyme, 23%.
Turning to `O=C(NCC1COCCN1C(=O)c1ccccc1)c1ccc(-c2noc(C(F)(F)F)n2)s1` (single isomer, unassigned) [Example 258, (R or S)-N-((4-benzoylmorpholin-3-yl)methyl)-5-(5-(trifluoromethyl)-1,2,4-oxadiazol-3-yl)thiophene-2-carboxamide], the “HDAC6 inhibitory rate (%) (1 μM)” value at HDAC6 enzyme (1 µM) was found to be 96%. For the same molecule, the “HDAC1 inhibitory rate (%) (1 μM)” value at HDAC1 enzyme (1 µM) is 31%.
Regarding `Cc1nc2ccccn2c1C(=O)N1CCOCC1CNC(=O)c1ccc(-c2noc(C(F)(F)F)n2)cc1` (stereo in doubt) [Example 92, N-(((3S)-4-((2-methylimidazo[1,2-a]pyridin-3-yl)carbonyl)morpholin-3-yl)methyl)-4-(5-(trifluoromethyl)-1,2,4-oxadiazol-3-yl)benzamide], the inhibition at 1 µM on HDAC6 enzyme came out at 97%; on HDAC1 enzyme it was 36%.
As to `Cn1nc2c(c1C(=O)N1CCOCC1CNC(=O)c1ccc(-c3noc(C(F)(F)F)n3)cc1)CCCC2` (stereo in doubt) [Example 93, N-(((3S)-4-((2-methyl-4,5,6,7-tetrahydro-2H-indazol-3-yl)carbonyl)morpholin-3-yl)methyl)-4-(5-(trifluoromethyl)-1,2,4-oxadiazol-3-yl)benzamide], the inhibition at 1 µM on HDAC6 enzyme turned out to be 95%; at HDAC1 enzyme it was 21%.
For `Cc1nocc1C(=O)N1CCOCC1CNC(=O)c1ccc(-c2noc(C(F)(F)F)n2)cc1` (stereo in doubt) [Example 94, N-(((3S)-4-((3-methyl-1,2-oxazol-4-yl)carbonyl)morpholin-3-yl)methyl)-4-(5-(trifluoromethyl)-1,2,4-oxadiazol-3-yl)benzamide] the same measures were 99% and 30%.
The corresponding values for `CC(C)(C(=O)N1CCOCC1CNC(=O)c1ccc(-c2noc(C(F)(F)F)n2)cc1)c1ccccc1` (stereo in doubt) [Example 95, N-(((3S)-4-(2-methyl-2-phenylpropanoyl)morpholin-3-yl)methyl)-4-(5-(trifluoromethyl)-1,2,4-oxadiazol-3-yl)benzamide] are 99% and 30%.
The corresponding values for `O=C(NCC1COCCN1C(=O)C(F)(F)c1ccccc1)c1ccc(-c2noc(C(F)(F)F)n2)cc1` (stereo in doubt) [Example 96, N-(((3S)-4-(difluoro(phenyl)acetyl)morpholin-3-yl)methyl)-4-(5-(trifluoromethyl)-1,2,4-oxadiazol-3-yl)benzamide] are 98% and 40%.
For `O=C(NCC1COCCN1C(=O)C12CC3CC(CC(C3)C1)C2)c1ccc(-c2noc(C(F)(F)F)n2)cc1` (stereo in doubt) [Example 97, N-(((3S)-4-(adamantan-1-ylcarbonyl)morpholin-3-yl)methyl)-4-(5-(trifluoromethyl)-1,2,4-oxadiazol-3-yl)benzamide], the inhibition at 1 µM at HDAC6 enzyme was determined as 96%; at HDAC1 enzyme, 16%.
Take `CN(C(=O)N1CCOCC1CNC(=O)c1ccc(-c2noc(C(F)(F)F)n2)cc1)c1ccccc1` (stereo in doubt) [Example 98, (3S)-N-methyl-N-phenyl-3-(((4-(5-(trifluoromethyl)-1,2,4-oxadiazol-3-yl)benzoyl)amino)methyl)morpholine-4-carboxamide]: the inhibition at 1 µM came to 98% at HDAC6 enzyme and 15% at HDAC1 enzyme.
The corresponding values for `O=C(NCC1COCCN1C(=O)N1CCOCC1)c1ccc(-c2noc(C(F)(F)F)n2)cc1` (stereo in doubt) [Example 99, N-(((3S)-4-(morpholin-4-ylcarbonyl)morpholin-3-yl)methyl)-4-(5-(trifluoromethyl)-1,2,4-oxadiazol-3-yl)benzamide] are 99% and 9%.
For `O=C(NCC1COCCN1C(=O)N1CCCC1)c1ccc(-c2noc(C(F)(F)F)n2)cc1` (stereo in doubt) [Example 100, N-(((3S)-4-(pyrrolidin-1-ylcarbonyl)morpholin-3-yl)methyl)-4-(5-(trifluoromethyl)-1,2,4-oxadiazol-3-yl)benzamide] the same measures were 97% and 6%.
Consider `O=C(NCC1COCCN1C(=O)Cc1cccs1)c1ccc(-c2noc(C(F)(F)F)n2)s1` (centres unmarked) [Example 245, N-((4-(2-thienylacetyl)morpholin-3-yl)methyl)-5-(5-(trifluoromethyl)-1,2,4-oxadiazol-3-yl)thiophene-2-carboxamide], for which the inhibition at 1 µM at HDAC6 enzyme was determined as 95%.
Still for that read-out and setting: under `O=C(NCC1COCCN1C(=O)C1(c2ccccc2)CCCCC1)c1ccc(-c2noc(C(F)(F)F)n2)s1` (centres unmarked) [Example 249, N-((4-((1-phenylcyclohexyl)carbonyl)morpholin-3-yl)methyl)-5-(5-(trifluoromethyl)-1,2,4-oxadiazol-3-yl)thiophene-2-carboxamide] stands 83%; under `O=C(NCC1COCCN1C(=O)CCc1ccccc1)c1ccc(-c2noc(C(F)(F)F)n2)s1` (centres unmarked) [Example 250, N-((4-(3-phenylpropanoyl)morpholin-3-yl)methyl)-5-(5-(trifluoromethyl)-1,2,4-oxadiazol-3-yl)thiophene-2-carboxamide], 98%.
`O=C(NCC1COCCN1C(=O)c1cccc2c1OCC2)c1ccc(-c2noc(C(F)(F)F)n2)s1` (centres unmarked) [Example 252, N-((4-(2,3-dihydro-1-benzofuran-7-ylcarbonyl)morpholin-3-yl)methyl)-5-(5-(trifluoromethyl)-1,2,4-oxadiazol-3-yl)thiophene-2-carboxamide]: the inhibition at 1 µM at HDAC6 enzyme was 91%.
For `O=C(NCC1COCCN1C(=O)C1CC1)c1ccc(-c2noc(C(F)(F)F)n2)s1` (centres unmarked) [Example 253, N-((4-(cyclopropylcarbonyl)morpholin-3-yl)methyl)-5-(5-(trifluoromethyl)-1,2,4-oxadiazol-3-yl)thiophene-2-carboxamide], on HDAC6 enzyme, the inhibition at 1 µM is 97%.
Regarding `O=C(NCC1COCCN1C(=O)C1CCOCC1)c1ccc(-c2noc(C(F)(F)F)n2)s1` (centres unmarked) [Example 255, N-((4-(tetrahydro-2H-pyran-4-ylcarbonyl)morpholin-3-yl)methyl)-5-(5-(trifluoromethyl)-1,2,4-oxadiazol-3-yl)thiophene-2-carboxamide], at HDAC6 enzyme, the inhibition at 1 µM was determined as 93%.
On to `O=C(NCC1COCCN1C(=O)c1ccccc1)c1cc(-c2noc(C(F)(F)F)n2)cs1` (centres unmarked) [Example 267, N-((4-benzoylmorpholin-3-yl)methyl)-4-(5-(trifluoromethyl)-1,2,4-oxadiazol-3-yl)thiophene-2-carboxamide], for which, on HDAC6 enzyme, the inhibition at 1 µM was found to be 52%.
